Among the data in patent publication US7786134B2, “Lipophilic anticancer drug compounds, compositions and related methods” (Sonus Pharmaceuticals, Inc., priority 2005, dated 2010) are GI50 values, retold here.

Read-outs that look alike come from different tables or passages of the source.

The test system of experiment [1] is HCT-116 (COLON). The settings on record: HCT-116 cells, National Cancer Institute (NCI) GI50 values; read-out: Concentration that produce 50% cell growth inhibition (GI50) HCT-116 (COLON); cited from earlier work.
In experiment [2] the test system is HCT-15 (colorectal). Conditions: HCT-15 cells, National Cancer Institute (NCI) GI50 values; read-out: Concentration that produce 50% cell growth inhibition (GI50) HCT-15 (COLON); cited from earlier work.
Experiment [3] relates to H460 (non-small cell lung). Conditions: H460 cells, National Cancer Institute (NCI) GI50 values; read-out: Concentration that produce 50% cell growth inhibition (GI50) H460 (NSCLC); cited from earlier work.
The test system of experiment [4] is HCT-116 (COLON). The experiment can be described thus: In vitro cytotoxicity (GI50), Sulforhodamine B staining, HCT-116. It counts as cell-based. The settings on record: HCT-116 cells, 48 hours contact, read-out: Concentration that produce 50% cell growth inhibition (GI50) HCT-116 (COLON). The procedure: (§1) The study was performed using a solution of the lipophilic anticancer drug compounds in DMSO (1 mM) diluted in the corresponding cell media. The cells were in contact with varying concentrations of the test article for a period of 48 hours. At the end of 48 hours, staining with Sulforhodamine B was performed to determine the number of viable cells and calculate the degree of cellular growth inhibition as compared to a control group.

Experiment [5] concerns H460 (non-small cell lung). The experiment can be described thus: In vitro cytotoxicity (GI50), Sulforhodamine B staining, H460. Conditions: H460 cells, 48 hours contact, read-out: Concentration that produce 50% cell growth inhibition (GI50) H460 (NSCLC). The class given is cell-based. The protocol: as §1
Experiment [6] deals with HCT-15 (colorectal). The experiment can be described thus: In vitro cytotoxicity (GI50), Sulforhodamine B staining, HCT-15. The class given is cell-based. The settings on record: HCT-15 cells, 48 hours contact, read-out: Concentration that produce 50% cell growth inhibition (GI50) HCT-15 (COLON). The protocol: as §1
The subject of experiment [7] is SKOV-3 (ovarian). The experiment can be described thus: In vitro cytotoxicity (GI50), Sulforhodamine B staining, SKOV-3. It counts as cell-based. The settings on record: SKOV-3 cells, 48 hours contact, read-out: Concentration that produce 50% cell growth inhibition (GI50) SKOV-3 (OVARIAN). The procedure:
as §1

For experiment [8], the system named is SKOV-3 (ovarian). Conditions: SKOV-3 cells, National Cancer Institute (NCI) GI50 values; read-out: Concentration that produce 50% cell growth inhibition (GI50) SKOV-3 (OVARIAN); cited from earlier work.

For `CC[C@@]1(O)C(=O)OCc2c1cc1n(c2=O)Cc2cc3c(CN(C)C)c(O)ccc3nc2-1` [Topotecan, topotecan], the values for the GI50 (with HCT-116 (COLON) [1]; with HCT-15 (colorectal) [2]; in experiment [3]) were 39.8 nM, 501 nM and 19.9 nM, respectively.

Turning to “10-(n-butyl carbonoyloxy)-7-ethylcamptothecin”, the GI50 was found to be 0.58 nM in the experiment on HCT-116 (COLON) [4], 2.95 nM in experiment [5], 120 nM in the experiment on HCT-15 (colorectal) [6] and 0.275 nM with SKOV-3 (ovarian) [7].

In the case of `CC[C@@]1(O)C(=O)OCc2c1cc1n(c2=O)Cc2cc3ccccc3nc2-1` [Camptothecin], the GI50 with HCT-116 (COLON) [1] was 40 nM; in the experiment on HCT-15 (colorectal) [2], 160 nM; in experiment [3] it was 16 nM; with SKOV-3 (ovarian) [8], 25 nM.

`CCc1c2c(nc3ccc(OC(=O)CC4(CC(=O)OCc5ccccc5)CCCC4)cc13)-c1cc3c(c(=O)n1C2)COC(=O)[C@]3(O)CC` [10-(benzyl 3,3-tetramethyleneglutarate)-7-ethylcamptothecin]: the GI50 in the experiment on HCT-116 (COLON) [4] was found to be 3.49 nM; in experiment [5], 8.91 nM; with HCT-15 (colorectal) [6] it was 85.1 nM; in the experiment on SKOV-3 (ovarian) [7] it was 2.95 nM.

As to “10-(N-n-butyl carbamate)-7-ethylcamptothecin”, the GI50 was 1.1 nM with HCT-116 (COLON) [4], 1.2 nM in experiment [5], 44.7 nM with HCT-15 (colorectal) [6] and 0.398 nM with SKOV-3 (ovarian) [7].

For `CCc1c2c(nc3ccc(O)cc13)-c1cc3c(c(=O)n1C2)COC(=O)[C@]3(O)CC` [7-ethyl-10hydroxycamptothecin, 7-ethyl-10-hydroxycamptothecin], the GI50 in the experiment with HCT-116 (COLON) [1] was 21 nM; with HCT-15 (colorectal) [2] it was 7.9 nM; in experiment [3] it was 1.4 nM; in the experiment with SKOV-3 (ovarian) [8], 1 nM.

Regarding `CCCCCCCCOC(=O)CCC(=O)OC1(CC)C(=O)OCc2c1cc1n(c2=O)Cc2cc3ccccc3nc2-1` (centres unmarked) [20-(1-octyl succinate)camptothecin], the GI50 with HCT-116 (COLON) [4] came to 766 nM; in experiment [5] it was 165 nM; with HCT-15 (colorectal) [6], 354 nM; in the experiment with SKOV-3 (ovarian) [7], 2420 nM.

In the case of `CCc1c2c(nc3ccc(OC(=O)CCC(=O)OCc4c(C)cc(C)cc4C)cc13)-c1cc3c(c(=O)n1C2)COC(=O)C3(O)CC` (centres unmarked) [10-(2,4,6-trimethylbenzyl succinate)-7-ethylcamptothecin], the GI50 came to 3.54 nM with HCT-116 (COLON) [4], 5.12 nM in experiment [5], 31.6 nM in the experiment with HCT-15 (colorectal) [6] and 3.67 nM in the experiment with SKOV-3 (ovarian) [7].

For `CC[C@@]1(O)C(=O)OCc2c1cc1n(c2=O)Cc2cc3cc(O)ccc3nc2-1` [10-hydroxycamptothecin], the results for the GI50 (with HCT-116 (COLON) [1]; with HCT-15 (colorectal) [2]; in experiment [3]) were 27 nM, 356 nM and 11 nM, respectively.

With `CCc1c2c(nc3ccc(OC(=O)NC(C)(C)C)cc13)-c1cc3c(c(=O)n1C2)COC(=O)C3(O)CC` (centres unmarked) [10-(N-t-butyl carbamate)-7-ethylcamptothecin], the GI50 with HCT-116 (COLON) [4] amounted to 15.1 nM; in experiment [5] it was 5.75 nM; in the experiment on HCT-15 (colorectal) [6], 158 nM; with SKOV-3 (ovarian) [7] it was 1.29 nM.

`CCc1c2c(nc3ccc(OCc4ccccc4)cc13)-c1cc3c(c(=O)n1C2)COC(=O)[C@]3(O)CC` [10-benzyloxy-7-ethylcamptothecin]: the GI50 with HCT-116 (COLON) [4] is 4.52 nM; in experiment [5], 0.32 nM; in the experiment on HCT-15 (colorectal) [6], 5.66 nM; with SKOV-3 (ovarian) [7], 15 nM.

`CCc1c2c(nc3ccc(OC(=O)CCC(=O)OCc4ccc(C)cc4)cc13)-c1cc3c(c(=O)n1C2)COC(=O)C3(O)CC` (centres unmarked) [10-(4-methylbenzyl succinate)-7-ethylcamptothecin]: the GI50 in the experiment with HCT-116 (COLON) [4] worked out at 2.29 nM; in experiment [5], 5.37 nM; in the experiment with HCT-15 (colorectal) [6] it was 75.4 nM; in the experiment with SKOV-3 (ovarian) [7], 6.16 nM.

On to `CCc1c2c(nc3ccc(OC(=O)CCC(=O)OCc4ccccc4)cc13)-c1cc3c(c(=O)n1C2)COC(=O)C3(O)CC` (centres unmarked) [10-(benzyl succinate)-7-ethylcamptothecin], for which the GI50 was determined as 10.7 nM in the experiment with HCT-116 (COLON) [4], 0.372 nM in experiment [5], 50.1 nM in the experiment on HCT-15 (colorectal) [6] and 1.29 nM with SKOV-3 (ovarian) [7].

Take `CCCCOc1ccc(C(=O)Oc2ccc3nc4c(c(CC)c3c2)Cn2c-4cc3c(c2=O)COC(=O)C3(O)CC)cc1` (centres unmarked) [10-(4-butoxybenzoyloxy)-7-ethylcamptothecin]: the GI50 in the experiment on HCT-116 (COLON) [4] is 5.62 nM; in experiment [5], 28.2 nM; with HCT-15 (colorectal) [6], 141 nM; in the experiment with SKOV-3 (ovarian) [7], 5.5 nM.

Take `CCCCCCCCOC(=O)CCC(=O)Oc1ccc2nc3c(c(CC)c2c1)Cn1c-3cc2c(c1=O)COC(=O)C2(O)CC` (centres unmarked) [10-(1-octyl succinate)-7-ethylcamptothecin]: the GI50 in the experiment with HCT-116 (COLON) [4] was found to be 9.75 nM; in experiment [5], 2460 nM; in the experiment with HCT-15 (colorectal) [6], 661 nM; with SKOV-3 (ovarian) [7] it was 3.46 nM.

In the case of `CCc1c2c(nc3ccc(OC(=O)N4CCC(N5CCCCC5)CC4)cc13)-c1cc3c(c(=O)n1C2)COC(=O)[C@]3(O)CC` [Irrinotecan, irinotecan], the GI50 in the experiment on HCT-116 (COLON) [1] was 7900 nM; in experiment [3], 5100 nM.

As to `CCc1c2c(nc3ccc(OC(=O)CCC(=O)OCc4c(C)c(C)c(C)c(C)c4C)cc13)-c1cc3c(c(=O)n1C2)COC(=O)C3(O)CC` (centres unmarked) [10-(2,3,4,5,6-pentamethylbenzyl succinate)-7-ethylcamptothecin], the GI50 amounted to 3.09 nM with HCT-116 (COLON) [4], 3.82 nM in experiment [5], 32.4 nM in the experiment on HCT-15 (colorectal) [6] and 2.13 nM in the experiment on SKOV-3 (ovarian) [7].

As to `CCC1(OC(=O)CCC(=O)OCc2ccccc2)C(=O)OCc2c1cc1n(c2=O)Cc2cc3ccccc3nc2-1` (centres unmarked) [20-(benzyl succinate)camptothecin], the GI50 in the experiment on HCT-116 (COLON) [4] turned out to be 630 nM; in experiment [5], 380 nM; in the experiment on HCT-15 (colorectal) [6], 1300 nM; in the experiment with SKOV-3 (ovarian) [7], 562 nM.
